{
  "source": "paper PMC11695783",
  "about": "(Frontiers in Pharmacology, 2024)",
  "test_system": "Mycoplasma pneumoniae strain M129 (ATCC 29342)",
  "experiment": "Time-kill curves",
  "assay_type": "cell-based",
  "design": "M. pneumoniae count in time-kill curve: unit not given here",
  "description": "Mycoplasma pneumoniae strain M129 (ATCC 29342) was obtained from American Type Culture Collection (Manassas, VA, United States) and cultured at 37°C in the presence of 5% CO2 in the modified SP-4 liquid medium (pH 7.4) containing 2.1% (w/v) CM1166 mycoplasma broth base medium (Oxoid, Hants, United Kingdom), 20% (v/v) fetal bovine serum (FBS, Bioexplorer, CO, United States), 0.4% yeast extract (Oxoid), 0.55% (w/v) CMRL 1066 w/L-glutamine culture media powder (MyBioSource, San Diego, CA, United States), 1% D-glucose (Macklin) and 0.004% phenol red (Macklin). […] The solid medium is based on the above formula with the addition of 1% agar, and the characteristic fried egg-like colonies were used for experiments following incubation for 7 d on plates.\nThe tubes were incubated at 37°C in 5% CO2 for 72 h, and 200 µL of the culture was removed every 12 h for 10-fold serial dilutions. The diluted cultures were plated on plates for further culture and counted after 7 d. The experiment was repeated three times.",
  "data": [
    {"smiles": "O=C(O)c1cn(C2CC2)c2cc(N3CCNCC3)c(F)cc2c1=O", "note": "[ciprofloxacin]", "values": [
      {"measurement": "M. pneumoniae count in time-kill curve", "setting": "1×MIC, time 0", "value": 7.07},
      {"measurement": "M. pneumoniae count in time-kill curve", "setting": "1×MIC, time 12", "value": 6.346},
      {"measurement": "M. pneumoniae count in time-kill curve", "setting": "1×MIC, time 24", "value": 6.462},
      {"measurement": "M. pneumoniae count in time-kill curve", "setting": "1×MIC, time 36", "value": 6.137},
      {"measurement": "M. pneumoniae count in time-kill curve", "setting": "1×MIC, time 48", "value": 6.414},
      {"measurement": "M. pneumoniae count in time-kill curve", "setting": "1×MIC, time 60", "value": 6.605},
      {"measurement": "M. pneumoniae count in time-kill curve", "setting": "1×MIC, time 72", "value": 5.901},
      {"measurement": "M. pneumoniae count in time-kill curve", "setting": "2×MIC, time 0", "value": 7.07},
      {"measurement": "M. pneumoniae count in time-kill curve", "setting": "2×MIC, time 12", "value": 6.0302},
      {"measurement": "M. pneumoniae count in time-kill curve", "setting": "2×MIC, time 24", "value": 6.128},
      {"measurement": "M. pneumoniae count in time-kill curve", "setting": "2×MIC, time 36", "value": 5.661},
      {"measurement": "M. pneumoniae count in time-kill curve", "setting": "2×MIC, time 48", "value": 5.8},
      {"measurement": "M. pneumoniae count in time-kill curve", "setting": "2×MIC, time 60", "value": 5.6841},
      {"measurement": "M. pneumoniae count in time-kill curve", "setting": "2×MIC, time 72", "value": 4.597},
      {"measurement": "M. pneumoniae count in time-kill curve", "setting": "4×MIC, time 0", "value": 7.07},
      {"measurement": "M. pneumoniae count in time-kill curve", "setting": "4×MIC, time 12", "value": 5.551},
      {"measurement": "M. pneumoniae count in time-kill curve", "setting": "4×MIC, time 24", "value": 5.334},
      {"measurement": "M. pneumoniae count in time-kill curve", "setting": "4×MIC, time 36", "value": 5.292},
      {"measurement": "M. pneumoniae count in time-kill curve", "setting": "4×MIC, time 48", "value": 5.137},
      {"measurement": "M. pneumoniae count in time-kill curve", "setting": "4×MIC, time 60", "value": 5.179},
      {"measurement": "M. pneumoniae count in time-kill curve", "setting": "4×MIC, time 72", "value": 4.3324},
      {"measurement": "M. pneumoniae count in time-kill curve", "setting": "8×MIC, time 0", "value": 7.07},
      {"measurement": "M. pneumoniae count in time-kill curve", "setting": "8×MIC, time 12", "value": 5.507},
      {"measurement": "M. pneumoniae count in time-kill curve", "setting": "8×MIC, time 24", "value": 4.574},
      {"measurement": "M. pneumoniae count in time-kill curve", "setting": "8×MIC, time 36", "value": 4.144},
      {"measurement": "M. pneumoniae count in time-kill curve", "setting": "8×MIC, time 48", "value": 4.238},
      {"measurement": "M. pneumoniae count in time-kill curve", "setting": "8×MIC, time 60", "value": 3.8395},
      {"measurement": "M. pneumoniae count in time-kill curve", "setting": "8×MIC, time 72", "value": 3.628},
      {"measurement": "M. pneumoniae count in time-kill curve", "setting": "16×MIC, time 0", "value": 7.07},
      {"measurement": "M. pneumoniae count in time-kill curve", "setting": "16×MIC, time 12", "value": 5.235},
      {"measurement": "M. pneumoniae count in time-kill curve", "setting": "16×MIC, time 24", "value": 4.279},
      {"measurement": "M. pneumoniae count in time-kill curve", "setting": "16×MIC, time 36", "value": 3.946},
      {"measurement": "M. pneumoniae count in time-kill curve", "setting": "16×MIC, time 48", "value": 3.861},
      {"measurement": "M. pneumoniae count in time-kill curve", "setting": "16×MIC, time 60", "value": 3.824},
      {"measurement": "M. pneumoniae count in time-kill curve", "setting": "16×MIC, time 72", "value": 3.354},
      {"measurement": "M. pneumoniae count in time-kill curve", "setting": "32×MIC, time 0", "value": 7.07},
      {"measurement": "M. pneumoniae count in time-kill curve", "setting": "32×MIC, time 12", "value": 4.952},
      {"measurement": "M. pneumoniae count in time-kill curve", "setting": "32×MIC, time 24", "value": 4.119},
      {"measurement": "M. pneumoniae count in time-kill curve", "setting": "32×MIC, time 36", "value": 3.694},
      {"measurement": "M. pneumoniae count in time-kill curve", "setting": "32×MIC, time 48", "value": 3.873},
      {"measurement": "M. pneumoniae count in time-kill curve", "setting": "32×MIC, time 60", "value": 3.5568},
      {"measurement": "M. pneumoniae count in time-kill curve", "setting": "32×MIC, time 72", "value": 3.233},
      {"measurement": "M. pneumoniae count in time-kill curve", "setting": "64×MIC, time 0", "value": 7.07},
      {"measurement": "M. pneumoniae count in time-kill curve", "setting": "64×MIC, time 12", "value": 5.252},
      {"measurement": "M. pneumoniae count in time-kill curve", "setting": "64×MIC, time 24", "value": 3.933},
      {"measurement": "M. pneumoniae count in time-kill curve", "setting": "64×MIC, time 36", "value": 3.756},
      {"measurement": "M. pneumoniae count in time-kill curve", "setting": "64×MIC, time 48", "value": 3.771},
      {"measurement": "M. pneumoniae count in time-kill curve", "setting": "64×MIC, time 60", "value": 3.185},
      {"measurement": "M. pneumoniae count in time-kill curve", "setting": "64×MIC, time 72", "value": 2.981}
    ]}
  ]
}
